In series [1] the test system is runx1/cmyb+ HSCs in the zebrafish AGM. The series is described as follows: runx1/cmyb in situ hybridization for HSC formation in zebrafish embryos at 36 hpf. On the set-up: effect on HSC formation at 36 hpf when treatment occurred before the onset of heartbeat: dose or concentration left out as unconfirmed. Type of series: in vivo. The source says:
In Situ Hybridizataion: Paraformaldehyde-fixed embryos were processed for in situ hybridization according to standard zebrafish protocols. Such protocols are available on-line through the The Zebrafish Model Organism Database. The following RNA probes were used: runx1, cmyb, flk1, ephrinB2, flt4, globin, mpo, mhc, and foxa3. Changes in expression compared to WT controls are reported as the number altered/number scored per genotype/treatment (North et al., 2007); a minimum of three independent experiments was conducted per analysis.
Chemical Exposure: Zebrafish embryos were exposed to chemicals at the doses indicated; dimethyl sulfoxide (DMSO) carrier content was 0.1%. For evaluation of HSC development, exposure ranged from early somitogenesis (5+ somites) until 36 hpf, unless otherwise noted.
(§1) Morpholino injection: Morpholino antisense oligonucleotides (MO; GENETOOLS, LLC, Philomath, Oreg.) designed against the ATG and exonl splice sites of nos1 (5′-[…] [SEQ. ID NO:1]; 5′-[…] [SEQ ID NO:2), nos2 (5′-[…] [SEQ ID NO:3]; 5′-[…] [SEQ ID NO:4]), and mismatched controls were injected into one-cell-stage embryos.

In another series the test system is HSCs. The series is described as follows: in vivo confocal imaging of HSC number in cmyb:GFP; lmo2:dsRed embryos. The arrangement: species or system zebrafish. The following applies: lmo2:dsRed reporter fish, p<0.001, n=5. On the procedure: Confocal Microscopy: Fluorescent reporter embryos were exposed to blood flow modulators (10 μM, unless otherwise noted) as indicated, live embedded in 1% agarose, and imaged with a Zeiss LSM510 Meta confocal microscope at 36 hpf (North et al., 2007) or a Perkin Elmer UltaVIEW VoX spinning disk confocal microscope.

A further series relates to nos1. The series is described as follows: blastula transplantation of cmyb:GFP donor cells into lmo2:dsRed recipients. The series is classed as in vivo, zebrafish. The settings on record: 36 hpf, p=0.0065. On the procedure:
Blastula Transplantation: cmyb: GFP embryos were injected with nos1 or control MO at the one-cell stage. At the blastula stage, 100 cells were removed from the donor embryo and transplanted into stage-matched recipients. Embryos were analyzed by confocal microscopy at 36 hpf.
as §1

As to `N=C(N)NCCC[C@H](N)C(=O)O` [L-arg, L-arginine], the “effect on the sih hematopoietic defect (runx1/cmyb), in words” value in series [1] (sih−/− embryos, 36 hpf) was “rescued the sih hematopoietic defect”. In addition, the “effect on HSCs (runx1/cmyb), in words” value in series [1] (wild-type embryos, 36 hpf, bradykinin 10 μM) is listed as “increased HSCs”. In the case of `CC(=O)N[C@H](C(=O)O)C(C)(C)SN=O` [SNAP, S-nitroso-N-acetyl-penicillamine], the “HSC number by confocal microscopy” value with HSCs is “increased HSC numbers”. The “effect on HSC formation at 36 hpf when treatment occurred before the onset of heartbeat” value in series [1] (exposure 10 somites-23 hpf) is “capable of enhancing HSC number”. As for “nos1 ATG MO: morpholino antisense oligonucleotide against the ATG site of nos1, 5′-ACGCTGGGCTCTGATTCCTGCATTG, SEQ ID NO:1 (all phosphorodiamidate morpholino (PMO))”, the “donor cell contribution to GFP+ HSC formation in transplanted embryos” value with nos1 is reported as “none”.

The values above are taken from US20110206781A1, “METHOD TO MODULATE HEMATOPOIETIC STEM CELL GROWTH” (priority 2008, published 2011).
